Patent publication US20050245534A1, “Inhibitors of the 11-beta-hydroxysteroid dehydrogenase Type 1 enzyme” (priority 2004, published 2005)

Key:
[1] = system: Male CD-1 mice; test: Mouse Dehydrocorticosterone Challenge Model, plasma corticosterone; assay type: in vivo
Description: Male CD-1 (18-22 g) mice (Charles River, Madison, Wis.) were group housed and allowed free access to food and water. Mice are brought into a quiet procedure room for acclimation the night before the study. Animals are dosed with vehicle or compound at various times (pretreatment period) before being challenged with 11-dehydrocorticosterone (Steraloids Inc., Newport, R.I.). Thirty minutes after challenge, the mice are euthanized with CO2 and blood samples (EDTA) are obtained by cardiac puncture and immediately placed on ice. Blood samples were then spun, the plasma was removed, and the samples frozen until further analysis was performed. Corticosterone levels were obtained by ELISA (American Laboratory Prod., Co., Windham, N.H.) or HPLC/mass spectroscopy.

[2] = system: Male B6.VLep ob(-/-) (ob/ob) mice; test: ob/ob Mouse Model of Type 2 Diabetes; assay type: in vivo; conditions: three weeks
Description: Male B6.VLep^ob(−/−) (ob/ob) mice and their lean littermates (Jackson Laboratory, Bar Harbor, Me.) were group housed and allowed free access to food (Purina 5015) and water. Mice were 6-7 weeks old at the start of each study. On day 0, animals were weighed and postprandial glucose levels determined (Medisense Precision-X™ glucometer, Abbott Laboratories). […] Animals were weighed, and postprandial glucose measurements were taken weekly throughout the study. On the last day of the study, 16 hours post dose (unless otherwise noted) the mice were euthanized via CO2, and blood samples (EDTA) were taken by cardiac puncture and immediately placed on ice. Whole blood measurements for HbA1c were taken with hand held meters (A1c NOW, Metrika Inc., Sunnyvale Calif.). Blood samples were then spun and plasma was removed and frozen until further analysis. The plasma triglyceride levels were determined according to instructions by the manufacturer (Infinity kit, Sigma Diagnostics, St. Louis Mo.).

[3] = system: healthy volunteers; conditions: seven days; cited from earlier work

## CC(C(=O)NC1C2CC3CC1CC(O)(C3)C2)N1CCN(c2ccc(C(F)(F)F)cn2)CC1 (stereo not shown) [Compound F, N-[(E)-5-hydroxy-2-adamantyl]-2-{4-[5-(trifluoromethyl)pyridin-2-yl]piperazin-1-yl}propanamide]
[1]; 30 mpk followed by 11-DHC, pretreatment period 0.5 hours
  Plasma corticosterone levels: 1297 ± 121
[1]; 30 mpk followed by 11-DHC, pretreatment period 16 hours
  Plasma corticosterone levels: 1402 ± 99
[1]; 100 mpk followed by 11-DHC, pretreatment period 0.5 hours
  Plasma corticosterone levels: 742 ± 119
[1]; 100 mpk followed by 11-DHC, pretreatment period 16 hours
  Plasma corticosterone levels: 1422 ± 129
[2]; 30 mpk twice daily
  % HbA1c: 7.6 ± 0.6%
  Glucose: 295 ± 31 mg/dL
  Triglycerides: 255 ± 22 mg/dL
[2]; 100 mpk twice daily
  % HbA1c: 6.4 ± 0.5%
  Glucose: 263 ± 21 mg/dL
  Triglycerides: 282 ± 36 mg/dL

## C[C@]12CC(=O)[C@H]3[C@@H](CCC4=CC(=O)CC[C@@]43C)[C@@H]1CC[C@@H]2C(=O)CO [Example 11-DHC, 11-dehydrocorticosterone, reference compound]
[1]; 11-DHC challenge without compound, pretreatment period 0.5 hours
  Plasma corticosterone levels: 1478 ± 180
[1]; 11-DHC challenge without compound, pretreatment period 16 hours
  Plasma corticosterone levels: 1200 ± 86

## CC1(C)[C@@H](OC(=O)CCC(=O)O)CC[C@]2(C)[C@H]3C(=O)C=C4[C@@H]5C[C@@](C)(C(=O)O)CC[C@]5(C)CC[C@@]4(C)[C@]3(C)CC[C@@H]12 [carbenoxolone]
[3]
  reduction of IOP: 17%
